Reference: US9339508B2, “Use of 3-methoxy-pregnenolone for the preparation of a drug for treating a traumatic brain injury” (MAPREG, priority 2003, dated 2016)

Legend:
[1] = system: rats subjected to spinal cord compression; assay: Spinal cord compression model, BBB score; type: in vivo, rat; conditions: 12 mg/kg/day subcutaneous for 2 weeks; as of post-operation day 7
Experimental: FIG. 7: Effect of molecule 43B on locomotor recovery following spinal cord compression in rats. Animal locomotion was evaluated in a blind format during the 1-28 day post-operative period using the BBB score which evaluates the degree of paralysis (higher values correspond to better recovery). Statistical significance: * indicates p<0.001; ** indicates p<0.0001.
To determine the neuroprotective effects of the molecules tested, a spinal cord compression model is used. This model involves the total paralysis of the animals in the first few days following the operation. This period of paralysis is followed of a phase of approximately three weeks during which the animals partially recover their motor function. The study of this recovery using a simple and precise functional test based on observation of the animals (the BBB score) makes it possible to study the speed and the degree of recovery of the animals, with and without treatment.
Two groups of rats were subjected to spinal cord compression. Then, daily for 2 weeks, the animals received a subcutaneous injection containing either sesame oil alone (control group, n=20), or sesame oil containing molecule 43B (43B group, n=20; 12 mg/kg/day). The first injection was given 5 minutes after spinal cord compression. Locomotion of the animals, using BBB scores, was evaluated in a blind format on post-operation days 1, 4, 7, 14, 21, and 28. […]

CHI traumatized rats = assay: MRI of ventricular dilatation after Closed Head Injury (CHI); type: in vivo, rat; conditions: day 28 post-trauma, 20 mg/kg starting 24 hours post-trauma, compared to the vehicle
Source text: The model “Closed Head Injury” (CHI), also commonly known as “weight-drop”, “impact-acceleration” or Marmarou model, allows the induction of TBI on a closed skull and generates diffuse axonal injuries (Holtzer et al 2001). After anesthesia induction, the scalp was incised, a piece of metal (diameter 10 mm, height 3 mm)—designed to protect against skull fracture—was glued to the skull, between the lambda and bregma. The animal was then placed on a foam bed and a cylindrical metallic 230-g weight was dropped from 2 m through a metal tubing onto the disk. At the very moment of the impact, the head of the animal plunged briefly in the foam bed, which leads to an acceleration/deceleration of the brain inside the skull.
To determine lateral ventricle preservation, as well as lesion size (in the CCI model), T2-weighted MRI was performed 28 days after injury (D28). Acquisition was performed on a 7T Bruker AVANCE BIOSPEC—horizontal magnet, with rapid acquisition and relaxation enhancement (RARE).
MRI imaging of rats was performed at day 28 post-trauma. Based on MRI imaging, ventricular dilatation induced by CHI trauma was analyzed in CHI traumatized rats injected from 24 hours post-trauma with sesame oil (CHI-D0), or 3-methoxy-PREG (MAP4343) at 10 mg/kg (CHI-D1) or 20 mg/kg (CHI-D2).

[2] = Neurosteroids and 43B levels in rat plasma and hippocampus; conditions: 3 h after 10 mg/kg subcutaneously
[3] = In vivo toxicity, daily injection for one month; set-up: species or system rat; conditions: rats, 48 mg/kg daily injection for one month
[4] = system: transgenic mice expressing the longest isoform of human tau protein; assay: RotaRod motor incoordination in transgenic tau mice; type: in vivo, mouse; conditions: subcutaneous implant releasing 0.38 mg per day for 90 days
Source text: FIG. 8: Effect of molecule 43B on the motor incoordination of transgenic mice expressing the longest isoform of human tau protein in their neurons. […] The maximum speed of rotation of the RotaRod drum before the […] falls is a measurement of motor coordination (higher values correspond to a better treatment effect).
In order to evaluate the therapeutic potential of 433 to treat Alzheimer-type neurodegenerative diseases, a homozygous transgenic line of mice, such as described by Götz (EMBO J. 1995; 14(7):1304-13), can be used.
These mice express the longest human tau protein isoform. They present symptoms of neurological dysfunction expressed as muscular weakness and a reduction in motor coordination which correlate histologically with the appearance of abnormal neurites and hyperphosphorylated tau proteins as is seen in Alzheimer's disease. This pathological phosphorylation decreases the affinity of tau for microtubules and favors its aggregation.
A breeding program was undertaken at Bicêtre and genotyping made it possible to select mice homozygous for the transgene. […] The implants released 0.38 mg of steroid per day for 90 days. The progression of motor incoordination was followed by repeated RotaRod tests.

MAP2 = assay: Western blot of MAP2 in cortex and hippocampus after CCI; type: in vivo, rat; conditions: day 35, 20 mg/kg, first injection 2 h post-trauma, injured and non-injured cortex and hippocampus
Experimental: (§1) CCI was performed with an electromagnetic impact device as described (MyNeurolab, St. Louis, Mo.; Brody et al, 2007). Anesthesized rats were subjected to a single right lateral CCI, with the following parameters impact centered 4.0 mm anterior to lambda and 4.5 mm […] of midline, within the craniotomy of the animal. The impact was set at a velocity of 4 m/s with a sustained depression of 200 ms, using a 5.0 mm tip.
(§2) Samples were analyzed by Western-blot at day 35 post-trauma (D35) to evaluate the effects of MAP4343 on: MAP2 (the target of MAP4343 and a modulator of microtubule function), the post-synaptic markers PSD95 and spinophilin, the pre-synaptic marker synaptophysin, and the axonal growth/integrity marker […].
(§3) Western blot was performed on cortex and hippocampus of TBI-injured animals receiving the first injection of MAP4343 (at 10 mg/kg or 20 mg/kg) or vehicle (sesame oil) 2 h after injury.
(§4) The expression level of various neuronal brain markers of plasticity was measured at day 35 post-trauma by western-blots in the cortex and hippocampus of left uninjured and right injured cerebral hemispheres of CCI traumatized animals receiving either vehicle (sesame oil, CCI-D0) or 3-methoxy-PREG (MAP4343) at 10 mg/kg (CCI-D1) or 20 mg/kg (CCI-D2), with first MAP4343 injection 2 h post-trauma.

PC12 cells = assay: Neuritic growth / sprouting of PC12 cells in the presence of NGF; type: cell-based, rat; conditions: increasing concentrations, 2, 5 and 8 days of culture, NGF 10 ng/ml
Experimental: Each molecule was tested in three culture wells. Measurements were taken for 200 cells per well using Scion Image software.
Neurite (neurite) length was measured for 200 cells per well after 2, 5, and 8 days of culture.
To rest the effect of selected molecules on neuritic growth, we first used the PC12 line, which has long been employed in neurobiological research. In the presence of NOF (nerve growth factor), the cells of this line, which arise from a rat pheochromocytoma, form neuritic extensions containing MAP-associated microtubules.
Stimulation of neuritic sprouting is conducted on PC12 cells differentiated in the presence of NGF (10 ng/ml) and the steroid being tested (30 μM) for 3 days. For each condition, the average length of the longest 200 neurites in each cell is measured simultaneously for 3 cultures.

spinophilin = assay: Western blot of spinophilin in cortex and hippocampus after CCI; type: in vivo, rat; conditions: day 35, 10 mg/kg or 20 mg/kg, first injection 2 h post-trauma, injured cortex and hippocampus and contralaterally
Experimental: as §1, §2, §3, §4

CO[C@H]1CC[C@@]2(C)C(=CC[C@H]3[C@@H]4CC[C@H](C(C)=O)[C@@]4(C)CC[C@@H]32)C1 [3-methoxy-PREG, 3β-methoxy-pregna-5-ene-20-one]
locomotion, BBB score [1]: quite significantly higher than the control animals | ventricular dilatation (CHI traumatized rats): significantly decreases the ventricular dilatation | conversion to PREG or PROG [2]: not converted back to PREG or metabolized to PROG | average weight and behavior [3]: affected neither average weight nor behavior | motor dysfunction (RotaRod) [4]: beneficial effect on motor dysfunction | MAP2 expression (MAP2): strong increase of MAP-2 | increase in the length of neurites (PC12 cells): ≤ 500% | spinophilin expression (spinophilin): increase in spinophilin expression
